The subject of the assay is LTC/LTD. In words: inhibition of leukotriene C and D (LTC/LTD) synthesis in vitro. It is filed as cell-based. The following applies: for activity at 1 µg / LTC/LTD inhibition, expressed as % of control, at 1.0: 1.0 μg; for activity at 1 µg: read-out: LTC/LTD inhibition, expressed as % of control, at 1.0; for activity at 10 µg: read-out: LTC/LTD inhibition, expressed as % of control, at 10 μg; for activity at 0.1 µg: 0.1 μg, read-out: LTC/LTD inhibition, expressed as % of control, at 0.1. An excerpt:
Thus, the following TABLE II provides examples of the biological activity as determined by methods known in the art (see Bach, M. K., et al., 6,9-deepoxy-6,9-phenylimino-Δ-6,8-prostaglandin I1, (U-60,257). A New Inhibitor of Leukotriene C and D Synthesis: In Vitro Studies. Prostaglandins 23, 759-771, 1982.) for the present invention having formula II.
^a Values for inhibition are expressed as % of control.
LTC/LTD is leukotriene C or D.

As to `COC(=O)C=Cc1cc2c(nc1C)C(=Cc1ccccc1)CCC2` [3-[5,6,7,8-Tetrahydro-2-methyl-8-(phenylmethylene)-3-quinolinyl]-2-propenoic acid methyl ester], the activity at 1 µg stood at 99%. For the same molecule, the activity at 10 µg (10 μg) is 117%.

For `CC(=O)Oc1ccc(C=C2CCc3cccnc32)cc1` [4-[(5,6-Dihydro-7H-pyrindin-7-ylidene)methyl]phenol acetate], the activity at 1 µg was 88%. Also, the activity at 10 µg (10 μg) was determined as 45%.

For the molecule `CCOC(=O)c1cc2c(nc1C)C(Cc1ccccc1)CCC2` (centres unmarked) [5,6,7,8-Tetrahydro-2-methyl-8-(phenylmethyl)-3-quinolinecarboxylic acid ethyl ester], the activity at 0.1 µg came out at 110%.

On to `CCOC(=O)c1cc2c(nc1C)C(=Cc1ccccc1)CCC2` [5,6,7,8-Tetrahydro-2-methyl-8-(phenylmethylene)-3-quinolinecarboxylic acid ethyl ester], for which the “LTC/LTD inhibition, expressed as % of control, at 1.0” value is on record as 96 % of control and the activity at 1 µg was 101%.

In the case of `CCOC(=O)c1cc2c(nc1C)C(CCCCCO)CCC2` (centres unmarked) [5,6,7,8-Tetrahydro-8-(5-hydroxypentyl)-2-methyl-3-quinolinecarboxylic acid ethyl ester], the “LTC/LTD inhibition, expressed as % of control, at 1.0” value is 140 % of control and the activity at 1 µg came to 121%.

As to `CCOC(=O)c1cc2c(nc1C)C(=Cc1ccc(OC(C)=O)cc1)CCC2` [8-[[4-(Acetyloxy)phenyl]methylene]-5,6,7,8-tetrahydro-2-methyl-3-quinolinecarboxylic acid ethyl ester], the activity at 0.1 µg worked out at 89% and the activity at 1 µg stood at 78%. Further, the activity at 10 µg (10 μg) came out at 34%.

Take `CCOC(=O)c1cc2c(nc1C)C(CC(=O)CCCO)CCC2` (centres unmarked) [N; CHCO(CH2)3 OH; n 1; R8 CH3; R9 CO2 Et, 5,6,7,8-Tetrahydro-8-(5-hydroxy-2-oxopentyl)-2-methyl-3-quinolinecarboxylicacid ethyl ester]: the activity at 0.1 µg is 19% and the activity at 1 µg came out at 52%. Also, the activity at 10 µg (10 μg) was determined as 41%.

As for `C(=C1CCCc2cccnc21)c1ccccc1` [N; XII wherein M is H; n 1; R8 H; R9 H, 5,6,7,8-Tetrahydro-8-(phenylmethylene)-quinoline], the activity at 1 µg was 105%. Also, under “10 μg”, the activity at 10 µg stood at 33%.

As to `CCOC(=O)c1cc2c(nc1C)C(=Cc1ccco1)CCC2` [N; XIV; n 1; R8 CH3; R9 CO2 Et, 8-(2-Furanylmethylene)-5,6,7,8-tetrahydro-2-methyl-3-quinolinecarboxylic acid ethyl ester], for the setting “10 μg”, the “LTC/LTD inhibition, expressed as % of control, at 10 μg” value is recorded as 31 % of control and the activity at 10 µg came out at 16%.

Regarding `CCOC(=O)c1cc2c(nc1C)C(CC1CCCO1)CCC2` (centres unmarked) [N; XIX; n 1; R8 CH3; R9 CO2 Et], the activity at 1 µg was 67%. For the same molecule, the activity at 10 µg (10 μg) was found to be 52%.

As for `C(=C1CCc2cccnc21)c1cccs1` [N; XV; n 0; R8 H; R9 H, 5,7 -Dihydro-7-(2-thienylmethylene)-5H-1-pyrindine], the activity at 1 µg was 67%. Besides, the activity at 10 µg (10 μg) was 15%.

The record behind these values is US4576949A, “Use of 5,6,7,8-tetrahydroquinolines and 5,6-dihydropyrindines as leukotriene and lipoxygenase inhibitors and the novel 3-substituted compounds therein” (The Upjohn Company, priority 1984, dated 1986).
